According to article PMC9977398, “Next-generation membrane-active glycopeptide antibiotics that also inhibit bacterial cell division” (Chemical Science, 2023):
Values after ≈ are worked out from the molar mass of the structure shown. Where two headings read alike, the source gives them in different places.

Experiments:
Format in all cases: cell-based
VRE = experiment: MIC against VRE (strains taken together); conditions: ratio of MICs
Experimental: The increase in the carbon content of substituted moieties from six (1) to seven (2 and 3) to ten (5) to twelve (4), increased activity.
VanQAmC14 (10): Yield 65%; HPLC purity 96%; 1H-NMR (400 MHz, DMSO-d6) δ/ppm:
(§1) Test compound was assayed in a micro -dilution broth format as per the CLSI guideline. The bacterial freeze dried stock samples were stored at -80 °C. About 5 μL of these stocks were added to 3 mL of the respective broth and the culture was grown for 6 h at 37°C with prior to the experiments. This 6 h grown culture was diluted to give effective cell concentration of 10 5 CFU/mL which was then used for determining MIC. Compounds were serially diluted 2 -fold, in sterile millipore water and 50 μL of these serial dilutions were added to the wells of 96 well plate followed by the addition of about 150 μL of bacterial solution. The plates were then incubated for 18-24 h at 37 °C. The O.D. value at 600 nm was recorded using TECAN (Infinite series, M200 pro) Plate Reade r. Each concentration had triplicate values and the whole experiment was done at least twice and the MIC value was determined by taking the average of triplicate O. D. values for each concentration and plotting it against concentration. The data was then subjected to sigmoidal fitting. From the curve the MIC value was determined, as the point where the O. D. was similar to that of control having no bacteria.

ΔamiAC MG1655 E. coli = experiment: Antibacterial activity against ΔamiAC MG1655 E. coli; conditions: LB media, 18 h
Experimental: The bacterial amidases help cleave the septum in the final stage of cell division to produce daughter cells.[39] In the absence of amidases, chains of unseparated cells are formed (Fig. 5D). These retain distinct cytoplasmic compartments but share an outer membrane.[39] These cells are known to be hypersensitive to antibiotics and detergents. However, ΔamiAC mutations are resistant to killing by cephalexin.[38] The MIC of VanQAmC10 against the ΔamiAC mutant was reduced to 4 μM, while that of vancomycin was >10 μM. […] This is indicative of impaired cell division. Cell debris due to lysis after compound treatment are also visible. […]
resuspended in prewarmed BMM media. 1:1 BAC light dye was then added to the bacterial suspension and incubated for 5 minutes. The fluorescence in the GFP and Texas red channels was then observed under the microscope. The experiments were performed three times independently and the images are representative of results from three independent experiments. […]
About 6 μl of sample was immobilized on 1% agarose pad . DIC and fluorescence images were obtained at different time intervals using Nikon Eclipse Ti Microscope equipped with Nikon DS-U3 camera through Plan Apo 100×/1.40 oil objective. […]
from 10 μg/mL. The bacteria with compounds and untreated control were incubated for 18 h at 37 ̊C under shaking and OD600 was measured. […]

[1] = test system: VRE 51559 (vancomycin-resistant E. faecium, VanA phenotype, ATCC 51559); experiment: MIC determination, micro-dilution broth
Experimental: (§2) The increase in the carbon content of substituted moieties from six (1) to seven (2 and 3) to ten (5) to twelve (4), increased activity. […]
as §1

[2] = test system: VRE 51575 (vancomycin-resistant E. faecalis, VanB phenotype, ATCC 51575); experiment: MIC determination, micro-dilution broth
Experimental: as §2, §1

[3] = test system: VRSA 1 (vancomycin-resistant S. aureus); experiment: MIC determination, micro-dilution broth; conditions: Staphylococcus aureus, read-out: Minimum inhibitory concentration, VRSA 1
Experimental: as §2, §1

[4] = test system: VRSA 12 (vancomycin-resistant S. aureus); experiment: MIC determination, micro-dilution broth; conditions: Staphylococcus aureus, read-out: Minimum inhibitory concentration, VRSA 12
Experimental: as §2, §1

[5] = test system: VRSA 4 (vancomycin-resistant S. aureus); experiment: MIC determination, micro-dilution broth; conditions: Staphylococcus aureus, read-out: Minimum inhibitory concentration, VRSA 4
Experimental: as §2, §1

SMILES | fold enhancement in activity as compared to vancomycin against VRE (VRE) | MIC against the ΔamiAC mutant (ΔamiAC MG1655 E. coli) [µM] | MIC ([1]; Enterococcus; read-out: Minimum inhibitory concentration, VRE 51559) [µM] | MIC ([2]; Enterococcus; read-out: Minimum inhibitory concentration, VRE 51575) [µM] | MIC [3] [µM] | MIC [4] [µM] | MIC [5] [µM] | MIC ([1]; Enterococcus, read-out: Minimum inhibitory concentration, VRE 51559) [µM] | MIC ([2]; Enterococcus, read-out: Minimum inhibitory concentration, VRE 51575) [µM]
CCCCCCCCCCNC(=O)C[N+](C)(C)CCCNC(=O)C1NC(=O)C2NC(=O)C(NC(=O)C3NC(=O)C(CC(N)=O)NC(=O)C(NC(=O)C(CC(C)C)NC)C(O)c4ccc(c(Cl)c4)Oc4cc3cc(c4OC3OC(CO)C(O)C(O)C3OC3CC(C)(N)C(O)C(C)O3)Oc3ccc(cc3Cl)C2O)c2ccc(O)c(c2)-c2c(O)cc(O)cc21 (centres unmarked) [VanQAmC10 (8)] | ~160 fold | 4 | – | – | – | – | – | – | –
CNC(CC(C)C)C(=O)NC1C(=O)NC(CC(N)=O)C(=O)NC2C(=O)NC3C(=O)NC(C(=O)NC(C(=O)NCCC[N+](C)(C)Cc4ccc(-c5ccccc5)cc4)c4cc(O)cc(O)c4-c4cc3ccc4O)C(O)c3ccc(c(Cl)c3)Oc3cc2cc(c3OC2OC(CO)C(O)C(O)C2OC2CC(C)(N)C(O)C(C)O2)Oc2ccc(cc2Cl)C1O (centres unmarked) [VanQbiph (4)] | 40- to 60 fold | – | 6.1 | 12.3 | 7.8 | 15.7 | 3.9 | – | –
CN[C@H](CC(C)C)C(=O)N[C@H]1C(=O)N[C@@H](CC(N)=O)C(=O)N[C@H]2C(=O)N[C@H]3C(=O)N[C@H](C(=O)N[C@H](C(=O)O)c4cc(O)cc(O)c4-c4cc3ccc4O)[C@H](O)c3ccc(c(Cl)c3)Oc3cc2cc(c3O[C@@H]2O[C@H](CO)[C@@H](O)[C@H](O)[C@H]2O[C@H]2C[C@](C)(N)[C@H](O)[C@H](C)O2)Oc2ccc(cc2Cl)[C@H]1O [Vancomycin, reference compound] | – | > 10 | – | – | 345 (≈ 500 µg/mL) | 345 (≈ 500 µg/mL) | 345 (≈ 500 µg/mL) | 250 (≈ 362 µg/mL) | 750 (≈ 1090 µg/mL)
